Source: ChEMBL document CHEMBL6092134, “N-acyl-4-arylaminopiperidines: Design and synthesis of a potential antimicrobial scaffold” (Bioorg Med Chem Lett, 2024)

Key:
Pseudomonas aeruginosa = assay: Antibacterial activity against Pseudomonas aeruginosa assessed as inhibition of bacterial growth at 50 uM by microdilution assay relative to control; format: functional
Klebsiella pneumoniae = assay: Antibacterial activity against Klebsiella pneumoniae assessed as inhibition of bacterial growth at 50 uM by microdilution assay relative to control; format: functional
Staphylococcus aureus [1] = assay: Antibacterial activity against methicillin-resistant Staphylococcus aureus assessed as inhibition of bacterial growth at 50 uM by microdilution assay relative to control; format: functional
Staphylococcus aureus [2] = assay: Antibacterial activity against methicillin-resistant Staphylococcus aureus assessed as inhibition of bacterial growth by microdilution assay; format: functional, organism-based

Compound	inhibition at 50 µM (Pseudomonas aeruginosa)	inhibition at 50 µM (Klebsiella pneumoniae)	inhibition at 50 µM (Staphylococcus aureus [1])	IC50 (Staphylococcus aureus [2])
O=C(/C=C/c1ccc2c(c1)OCO2)N1CCC(Nc2ccccc2)CC1	0%	24%	0%	
COc1cc(/C=C/C(=O)N2CCC(Nc3ccccc3)CC2)ccc1O	20%	37%	8%	
O=C(/C=C/c1ccc2c(c1)OCCCO2)N1CCC(Nc2ccccc2)CC1	6%	40%	0%	
COc1ccc(NC2CCN(C(=O)/C=C/c3ccc4c(c3)OCCO4)CC2)cc1	7%	40%	30%	
O=C(/C=C/c1ccc2c(c1)OCO2)N1CCC(Nc2ccc(Cl)cc2)CC1	13%	32%	20%	
O=C(/C=C/c1ccc2c(c1)OCCCO2)N1CCC(Nc2ccc(Cl)cc2)CC1	5%	27%	0%	
COc1cc(/C=C/C(=O)N2CCC(Nc3ccc(C)cc3)CC2)ccc1O	6%	49%	0%	
O=C(/C=C/c1ccc2c(c1)OCCO2)N1CCC(Nc2ccccc2)CC1	14%	35%	0%	
COc1cc(/C=C/C(=O)N2CCC(Nc3cccc(F)c3)CC2)ccc1O	4%	29%	0%	
O=C(/C=C/c1ccc2c(c1)OCCO2)N1CCC(Nc2ccc(Cl)cc2)CC1	10%	19%	24%	60.5 µM
CC(C)c1ccc(NC2CCN(C(=O)/C=C/c3ccc4c(c3)OCO4)CC2)cc1	27%	28%	0%	
COc1ccc(NC2CCN(C(=O)/C=C/c3ccccc3)CC2)cc1	7%	21%	15%	
COc1ccc(NC2CCN(C(=O)/C=C/c3ccc4c(c3)OCCCO4)CC2)cc1	0%	30%	0%	50.1 µM
COc1cc(/C=C/C(=O)N2CCC(Nc3ccc(F)cc3)CC2)ccc1O	0%	0%	0%	
CC(C)c1ccc(NC2CCN(C(=O)/C=C/c3ccc4c(c3)OCCCO4)CC2)cc1	14%	54%	0%	
CC(C)c1ccc(NC2CCN(C(=O)/C=C/c3ccccc3)CC2)cc1	20%	27%	42%	
COc1cc(/C=C/C(=O)N2CCC(Nc3ccc(C(C)C)cc3)CC2)ccc1O	25%	20%	0%	
COc1cc(/C=C/C(=O)N2CCC(Nc3cccc(Cl)c3)CC2)ccc1O	14%	0%	0%	
COc1cc(/C=C/C(=O)N2CCC(NCc3ccccc3)CC2)ccc1O	0%	41%	0%	
COc1ccc(NC2CCN(C(=O)/C=C/c3ccc4c(c3)OCO4)CC2)cc1	0%	44%	0%	
COc1cc(/C=C/C(=O)N2CCC(Nc3ccc4c(c3)OCCO4)CC2)ccc1O	0%	23%	3%	
O=C(/C=C/c1ccccc1)N1CCC(Nc2ccc(Cl)cc2)CC1	37%	38%	22%	
CC(C)c1ccc(NC2CCN(C(=O)/C=C/c3ccc4c(c3)OCCO4)CC2)cc1	10%	29%	26%	
O=C(/C=C/c1ccccc1)N1CCC(Nc2ccccc2)CC1	0%	0%	36%	
COc1cc(/C=C/C(=O)N2CCC(Nc3ccc(OC(F)(F)F)cc3)CC2)ccc1O	16%	0%	0%	
COc1cc(/C=C/C(=O)N2CCC(Nc3cccc4ccccc34)CC2)ccc1O	0%	0%	0%	
COc1ccc(NC2CCN(C(=O)/C=C/c3ccc(O)c(OC)c3)CC2)cc1	0%	0%	4%	
COc1cc(/C=C/C(=O)N2CCC(Nc3ccc(Cl)cc3)CC2)ccc1O	18%	37%	0%	
